This is an account of results in patent US7713994B2 (Wyeth LLC, priority 2005, dated 2010).

One test deals with LoVo. Put plainly: Cytotoxicity assay (SRB), LoVo. Type of test: cell-based. The note with it: Homo sapiens, LoVo, 72 h, LoVo cells, 3 days, SRB; read-out: In Vitro Cellular Activity IC50 LOVO. The method, boiled down: (§1)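 Plate cells, let them attach overnight, add compound dilutions in RPMI 1640/5% FBS, and incubate 3 days (BT474 6 days). Then fix with TCA, stain with SRB, dissolve the dye in Tris and read at 540 nm.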

For a further test, the system named is MCF-7. Briefly: Cytotoxicity assay (SRB), MCF-7. It is filed as cell-based. The note with it: Homo sapiens, MCF7, 72 h, MCF-7 cells, 3 days, SRB; read-out: In Vitro Cellular Activity IC50 MCF-7. In a few lines: as §1
The next test deals with T1, cyclin D1/cdk 4 enzyme (Homo sapiens, UniProt P11802).
T1 construct: made in house; host or cells: Sf9 insect cells, recombinant baculovirus
T1 sequence (P11802 whole entry, species assumed): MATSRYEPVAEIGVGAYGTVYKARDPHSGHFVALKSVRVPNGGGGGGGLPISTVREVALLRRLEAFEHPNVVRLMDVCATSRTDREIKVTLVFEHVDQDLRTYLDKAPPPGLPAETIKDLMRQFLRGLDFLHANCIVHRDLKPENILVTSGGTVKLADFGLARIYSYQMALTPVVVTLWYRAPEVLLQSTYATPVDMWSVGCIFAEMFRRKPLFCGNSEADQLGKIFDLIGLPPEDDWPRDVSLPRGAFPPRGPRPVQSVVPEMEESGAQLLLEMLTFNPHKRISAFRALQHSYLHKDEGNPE
T1 sequence (P24385 whole entry partner, species assumed): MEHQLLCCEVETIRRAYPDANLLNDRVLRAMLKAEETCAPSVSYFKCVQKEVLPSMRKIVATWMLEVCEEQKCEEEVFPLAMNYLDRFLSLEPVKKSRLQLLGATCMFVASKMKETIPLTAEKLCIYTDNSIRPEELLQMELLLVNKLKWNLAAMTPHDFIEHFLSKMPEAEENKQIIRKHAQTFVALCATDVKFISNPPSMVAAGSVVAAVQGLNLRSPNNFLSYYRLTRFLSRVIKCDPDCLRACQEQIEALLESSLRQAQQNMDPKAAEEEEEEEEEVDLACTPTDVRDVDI
Put plainly: CDK4 ELISA kinase assay (phospho-Rb ser 795 detection). Type of test: biochemical. The note with it: In Vitro Enzyme Assay, cyclin D1/cdk 4, read-out: CDK4 IC50. The method, boiled down:
(§2)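 Wells were coated overnight with GST-Rb C-terminal fragment, then blocked. Compound (10 ug/ml final) and cyclin/CDK enzyme from baculovirus-infected Sf9 cells with 200 μM ATP reacted 1 h at 30° C. Ser795 phosphorylation was detected by ELISA at 450 nm.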
Background: In an ELISA, binding on a coated surface is turned into a signal by an enzyme label.

For a further test, the target named is T2, cyclin E/CDK2 enzyme (Homo sapiens, UniProt P24941).
T2 construct: made in house; host or cells: Sf9 insect cells, recombinant baculovirus
Put plainly: CDK2 ELISA kinase assay (phospho-Rb ser 795 detection). It is filed as biochemical. The note with it: In Vitro Enzyme Assay, cyclin E/CDK2, read-out: CDK2 IC50. The method, boiled down: as §2

A further test deals with T3, cyclin B/CDK1 enzyme (Homo sapiens, UniProt P06493).
T3 construct: purchased New England BioLabs; host or cells: Sf9 insect cells, recombinant baculovirus
T3 sequence (P06493 whole entry): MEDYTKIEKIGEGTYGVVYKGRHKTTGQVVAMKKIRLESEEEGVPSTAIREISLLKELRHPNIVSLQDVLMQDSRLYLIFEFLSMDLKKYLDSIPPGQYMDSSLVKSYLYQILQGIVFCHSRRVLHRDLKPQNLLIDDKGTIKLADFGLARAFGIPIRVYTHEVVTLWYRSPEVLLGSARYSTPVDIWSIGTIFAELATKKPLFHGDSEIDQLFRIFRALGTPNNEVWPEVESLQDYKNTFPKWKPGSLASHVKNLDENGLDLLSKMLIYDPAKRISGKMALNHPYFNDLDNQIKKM
T3 sequence (P14635 whole entry partner): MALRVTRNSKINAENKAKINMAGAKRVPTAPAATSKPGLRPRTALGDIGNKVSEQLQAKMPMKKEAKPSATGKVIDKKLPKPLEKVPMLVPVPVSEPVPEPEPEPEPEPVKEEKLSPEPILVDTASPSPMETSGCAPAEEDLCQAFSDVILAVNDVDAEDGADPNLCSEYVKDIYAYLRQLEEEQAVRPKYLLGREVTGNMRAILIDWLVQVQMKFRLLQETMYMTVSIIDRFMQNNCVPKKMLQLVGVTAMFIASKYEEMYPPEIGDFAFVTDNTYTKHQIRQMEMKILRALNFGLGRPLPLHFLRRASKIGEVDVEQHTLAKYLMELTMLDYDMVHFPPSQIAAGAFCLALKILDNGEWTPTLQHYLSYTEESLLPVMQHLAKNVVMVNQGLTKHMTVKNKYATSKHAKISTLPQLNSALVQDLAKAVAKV
Put plainly: CDK1 ELISA kinase assay (phospho-Rb ser 795 detection). Type of test: biochemical. The note with it: In Vitro Enzyme Assay, cyclin B/CDK1, read-out: CDK1 IC50. In a few lines: as §2

A further test concerns HCT-116. Briefly: Cytotoxicity assay (SRB), HCT-116. Type of test: cell-based. The note with it: Homo sapiens, HCT-116, 72 h, HCT116 cells, 3 days, SRB; read-out: In Vitro Cellular Activity IC50 HCT116. In a few lines: as §1
In another test the test system is BT474. Put plainly: Cytotoxicity assay (SRB), BT474. Type of test: cell-based. The note with it: Homo sapiens, BT-474, 144 h, BT474 cells, 6 days, SRB; read-out: In Vitro Cellular Activity IC50 BT474. In a few lines: as §1

As a reminder, the IC50 is the concentration that inhibits the measured activity by half. As for `COc1ccc(CNC=C2C(=O)NC(=O)c3ccc(-c4ccc5[nH]ccc5c4)cc32)cc1O` [Example 835, 4-[(3-Hydroxy-4-methoxy-benzylamino)-methylene]-6-(1H-indol-5-yl)-4H-isoquinoline-1,3-dione], the IC50 stood at 11.3 µM with LoVo; 12.6 µM with MCF-7; 0.04 µM at cyclin D1/cdk 4 enzyme; 40.6 µM at cyclin E/CDK2 enzyme; 35.5 µM at cyclin B/CDK1 enzyme; 10 µM in the test with HCT-116. Also, the IC50 in the test with BT474 turned out to be 11.7 µM.
Take `COc1ccc(CNC=C2C(=O)NC(=O)c3ccc(-c4ccc[nH]4)cc32)cc1O` [Example 836, 4-[(3-Hydroxy-4-methoxy-benzylamino)-methylene]-6-(1H-pyrrol-2-yl)-4H-isoquinoline-1,3-dione]: the IC50 turned out to be 6.8 µM in the test on LoVo; 17.7 µM with MCF-7; 0.01 µM on cyclin D1/cdk 4 enzyme; 15.4 µM at cyclin E/CDK2 enzyme; 28.3 µM on cyclin B/CDK1 enzyme; 12.7 µM in the test with HCT-116. Further, the IC50 with BT474 was 12.8 µM.
For `COc1ccc(CNC=C2C(=O)NC(=O)c3ccc(-c4ccco4)cc32)cc1O` [Example 837, 6-Furan-2-yl-4-[(3-hydroxy-4-methoxy-benzylamino)-methylene]-4H-isoquinoline-1,3-dione], the IC50 was 8.5 µM with LoVo; 3.6 µM with MCF-7; 0.02 µM at cyclin D1/cdk 4 enzyme; 24.2 µM on cyclin E/CDK2 enzyme; over 50 µM on cyclin B/CDK1 enzyme; 10.6 µM with HCT-116. The IC50 in the test on BT474 came out at 1.5 µM.
In the case of `O=C1NC(=O)c2ccc(-c3ccc[nH]3)cc2C1=CNc1ccc(CN2CCCC2)cc1` [Example 838, 4-[(4-Pyrrolidin-1-ylmethyl-phenylamino)-methylene]-6-(1H-pyrrol-2-yl)-4H-isoquinoline-1,3-dione], the concentration for half-maximal inhibition (IC50) amounted to 17.2 µM in the test with LoVo; 8.2 µM in the test with MCF-7; 0.15 µM on cyclin D1/cdk 4 enzyme; 23.6 µM at cyclin E/CDK2 enzyme; 45.5 µM on cyclin B/CDK1 enzyme; 7.2 µM in the test with HCT-116. Further, the IC50 in the test on BT474 was determined as 23.5 µM.
Regarding `N#Cc1ccc(-c2ccc3c(c2)C(=CNc2ccc(CN4CCCC4)cc2)C(=O)NC3=O)cc1` [Example 839, 4-{1,3-Dioxo-4-[(4-pyrrolidin-1-ylmethyl-phenylamino)-methylene]-1,2,3,4-tetrahydro-isoquinolin-6-yl}-benzonitrile], the IC50 in the test on LoVo was over 50 µM; in the test on MCF-7, 21.6 µM; on cyclin D1/cdk 4 enzyme, 3.3 µM; at cyclin E/CDK2 enzyme, 38.8 µM; on cyclin B/CDK1 enzyme it was over 50 µM; in the test with HCT-116, 14.1 µM. Besides, the half-inhibitory concentration (IC50) with BT474 came to 27.2 µM.
In the case of `O=C1NC(=O)c2ccc(-c3ccc(CO)cc3)cc2C1=CNc1ccc(CN2CCCC2)cc1` [Example 840, 6-(4-Hydroxymethyl-phenyl)-4-[(4-pyrrolidin-1-ylmethyl-phenylamino)-methylene]-4H-isoquinoline-1,3-dione], the 50% inhibitory concentration (IC50) in the test with LoVo was over 50 µM; in the test on MCF-7, 40 µM; on cyclin D1/cdk 4 enzyme it was 3 µM; at cyclin E/CDK2 enzyme, 31 µM; on cyclin B/CDK1 enzyme, over 50 µM; in the test with HCT-116 it was 19 µM. The IC50 with BT474 was over 50 µM.
Turning to `COCCn1ccc(-c2ccc3c(c2)C(=CNc2ccc(N4CCN(C)CC4)cc2)C(=O)NC3=O)c1` [Example 843, 6-[1-(2-Methoxy-ethyl)-1H-pyrrol-3-yl]-4-{[4-(4-methyl-piperazin-1-yl)-phenylamino]-methylene}-4H-isoquinoline-1,3-dione], the IC50 was over 50 µM with LoVo; 47.1 µM with MCF-7; 0.18 µM on cyclin D1/cdk 4 enzyme; over 50 µM on cyclin E/CDK2 enzyme; over 50 µM at cyclin B/CDK1 enzyme; 54.3 µM in the test on HCT-116. In the test with BT474, the IC50 was over 50 µM.
Regarding `O=C1NCc2cc(Br)ccc2C1=CNc1ccc(CN2CCCC2)cc1` [Example 847, 7-Bromo-4-[(4-pyrrolidin-1-ylmethyl-phenylamino)-methylene]-1,4-dihydro-2H-isoquinolin-3-one], the IC50 in the test on LoVo was 4.9 µM; with MCF-7, 6 µM; at cyclin D1/cdk 4 enzyme it was 5 µM; at cyclin E/CDK2 enzyme it was over 50 µM; on cyclin B/CDK1 enzyme, over 50 µM; with HCT-116, 4.3 µM. In addition, in the test on BT474, the concentration for half-maximal inhibition (IC50) turned out to be 8.1 µM.
As for `CN1CCN(c2ccc(NC=C3C(=O)NCc4cc(-c5cccs5)ccc43)cc2)CC1` [Example 848, 4-{[4-(4-Methyl-piperazin-1-yl)-phenylamino]-methylene}-7-thiophen-2-yl-1,4-dihydro-2H-isoquinolin-3-one], the IC50 with LoVo was 13.3 µM; in the test on MCF-7 it was 10.9 µM; at cyclin D1/cdk 4 enzyme, over 50 µM; on cyclin E/CDK2 enzyme, over 50 µM; at cyclin B/CDK1 enzyme it was 44.4 µM; in the test on HCT-116, 7.1 µM. Besides, in the test with BT474, the half-maximal inhibitory concentration (IC50) was found to be 13.8 µM.
For the molecule `COc1ccc(NC=C2C(=O)NCc3cc(-c4ccc[nH]4)ccc32)cc1` [Example 849, 4-[(4-Methoxy-phenylamino)-methylene]-7-(1H-pyrrol-2-yl)-1,4-dihydro-2H-isoquinolin-3-one], the 50% inhibitory concentration (IC50) with LoVo is 15.9 µM; in the test on MCF-7, 4.3 µM; on cyclin D1/cdk 4 enzyme, over 50 µM; on cyclin E/CDK2 enzyme it was 40.6 µM; at cyclin B/CDK1 enzyme it was over 50 µM; with HCT-116, 12.8 µM. Also, the IC50 with BT474 was determined as 6.8 µM.
As to `COc1ccc(NC=C2C(=O)NCc3cc(-c4cc[nH]c4)ccc32)cc1` [Example 850, 4-[(4-Methoxy-phenylamino)-methylene]-7-(1H-pyrrol-3-yl)-1,4-dihydro-2H-isoquinolin-3-one], the IC50 with LoVo is 24.2 µM; in the test on MCF-7 it was over 50 µM; on cyclin D1/cdk 4 enzyme, over 50 µM; at cyclin E/CDK2 enzyme, 19.7 µM; at cyclin B/CDK1 enzyme, over 50 µM; in the test with HCT-116, 16 µM. Besides, the IC50 with BT474 was 46.5 µM.
For `CCN(CC)CCn1ccc2cc(-c3ccc4c(c3)C(=CNc3ccc(N5CCN(C)CC5)cc3)C(=O)NC4=O)ccc21` [Example 852, 6-[1-(2-Diethylamino-ethyl)-1H-indol-5-yl]-4-{[4-(4-methyl-piperazin-1-yl)-phenylamino]-methylene}-4H-isoquinoline-1,3-dione], the concentration for half-maximal inhibition (IC50) in the test with LoVo was over 50 µM; in the test on MCF-7, 46.3 µM; on cyclin D1/cdk 4 enzyme, 0.31 µM; on cyclin E/CDK2 enzyme it was over 50 µM; at cyclin B/CDK1 enzyme it was over 50 µM; with HCT-116, over 50 µM. The IC50 in the test with BT474 is over 50 µM.
`CN1CCN(c2ccc(NC=C3C(=O)NC(=O)c4ccc(-c5ccn(CCCC#N)c5)cc43)cc2)CC1` [Example 855, 4-[3-(4-{[4-(4-Methyl-piperazin-1-yl)-phenylamino]-methylene}-1,3-dioxo-1,2,3,4-tetrahydro-isoquinolin-6-yl)-pyrrol-1-yl]-butyronitrile]: the IC50 with LoVo was over 50 µM; in the test on MCF-7, 42.6 µM; at cyclin D1/cdk 4 enzyme it was 0.31 µM; at cyclin E/CDK2 enzyme it was over 50 µM; at cyclin B/CDK1 enzyme, over 50 µM; with HCT-116, over 50 µM. In addition, the 50% inhibitory concentration (IC50) in the test with BT474 worked out at 43.3 µM.
In the case of `N=C(N)c1ccc(NC=C2C(=O)NCc3cc(Br)ccc32)cc1` [Example 861, 4-[(7-Bromo-3-oxo-2,3-dihydro-1H-isoquinolin-4-ylidenemethyl)-amino]-benzamidine], the IC50 is over 50 µM in the test with LoVo; over 50 µM in the test on MCF-7; 14.3 µM at cyclin D1/cdk 4 enzyme; 3.6 µM on cyclin E/CDK2 enzyme; over 50 µM on cyclin B/CDK1 enzyme; over 50 µM in the test with HCT-116. In addition, in the test with BT474, the IC50 was found to be 45.4 µM.
For `O=C1NCc2cc(Br)ccc2C1=CNc1ccc(CCO)cc1` [Example 863, 7-Bromo-4-{[4-(2-hydroxy-ethyl)-phenylamino]-methylene}-1,4-dihydro-2H-isoquinolin-3-one], the IC50 in the test on LoVo came to 10.2 µM; in the test with MCF-7, 16.3 µM; at cyclin D1/cdk 4 enzyme, 20.1 µM; on cyclin E/CDK2 enzyme, 18 µM; on cyclin B/CDK1 enzyme, 37.1 µM; in the test on HCT-116 it was 11.2 µM. Further, in the test with BT474, the IC50 came out at 31.1 µM.
On to `CN(CCN1CCCC1)c1ccc(N/C=C2\C(=O)NC(=O)c3ccc(Br)cc32)cc1` [Example 864, (4Z)-6-Bromo-4-[({4-[methyl(2-pyrrolidin-1-ylethyl)amino]phenyl}amino)methylene]isoquinoline-1,3(2H,4H)-dione], for which the concentration for half-maximal inhibition (IC50) in the test with LoVo was 3.8 µM; in the test with MCF-7 it was 3.6 µM; at cyclin D1/cdk 4 enzyme, 2.5 µM; on cyclin E/CDK2 enzyme it was over 50 µM; on cyclin B/CDK1 enzyme, over 50 µM; in the test with HCT-116, 3.1 µM. Moreover, the half-inhibitory concentration (IC50) in the test on BT474 came to 7.9 µM.
